The EC50 is the concentration needed to bring the measured effect to its halfway point. By melting point is commonly meant the temperature of the solid-liquid transition.

The text below walks through data of patent US6399641B1, “2H-tetrazole-amide compounds with therapeutic activity as metabotropic glutamate receptor agonists” (Hoffmann-la Roche Inc., priority 2000, dated 2002).

One series has as its target T1, rat mGlu1a receptor (Rattus norvegicus, UniProt P23385).
T1 construct: expressed in transfected cells; host or cells: EBNA cells (transient transfection)
Kind of series: [Ca2+]i measurement (FLIPR) on mGlu1a transfected EBNA cells. The format is cell-based. The settings on record: agonist activity, rat mGlu1a transiently transfected EBNA cells, Fluo-3 AM. As for the experimental part: cDNA encoding for rat mGlu1a receptor obtained from Prof. S. Nakanishi (Kyoto, Japan) was transiently transfected into EBNA cells using a procedure described by Schlaeger & Christensen, 1998. [Ca^2+]i measurement were performed on mGlu1a transfected EBNA cells after incubation of the cells with Fluo-3 AM (0.5 μM final concentration) for 1 hour at 37° C. followed by 4 washes with assay buffer (DMEM supplemented with Hank's salt and 20 mM HEPES). [Ca^2+]i measurement were done using a fluorometric imaging plate reader (FLIPR, Molecular Devices Corporation, La Jolla, Calif., USA). When compounds were evaluated as antagonists they were tested against 10 μM glutamate as agonist.
The inhibition (antagonists) or activation (agonists) curves were fitted with a four parameter logistic equation giving EC50, IC50 and Hill coefficient using the iterative non linear curve fitting software Origin (Microcal Software Inc., Northampton, Mass., USA). E.-J. Schlaeger and K. Christensen Transient gene expression in mammalian cells grown in serum-free suspension culture. Cytotechnology, 30:71-83, 1999.

T1 sequence (P23385 19-1199): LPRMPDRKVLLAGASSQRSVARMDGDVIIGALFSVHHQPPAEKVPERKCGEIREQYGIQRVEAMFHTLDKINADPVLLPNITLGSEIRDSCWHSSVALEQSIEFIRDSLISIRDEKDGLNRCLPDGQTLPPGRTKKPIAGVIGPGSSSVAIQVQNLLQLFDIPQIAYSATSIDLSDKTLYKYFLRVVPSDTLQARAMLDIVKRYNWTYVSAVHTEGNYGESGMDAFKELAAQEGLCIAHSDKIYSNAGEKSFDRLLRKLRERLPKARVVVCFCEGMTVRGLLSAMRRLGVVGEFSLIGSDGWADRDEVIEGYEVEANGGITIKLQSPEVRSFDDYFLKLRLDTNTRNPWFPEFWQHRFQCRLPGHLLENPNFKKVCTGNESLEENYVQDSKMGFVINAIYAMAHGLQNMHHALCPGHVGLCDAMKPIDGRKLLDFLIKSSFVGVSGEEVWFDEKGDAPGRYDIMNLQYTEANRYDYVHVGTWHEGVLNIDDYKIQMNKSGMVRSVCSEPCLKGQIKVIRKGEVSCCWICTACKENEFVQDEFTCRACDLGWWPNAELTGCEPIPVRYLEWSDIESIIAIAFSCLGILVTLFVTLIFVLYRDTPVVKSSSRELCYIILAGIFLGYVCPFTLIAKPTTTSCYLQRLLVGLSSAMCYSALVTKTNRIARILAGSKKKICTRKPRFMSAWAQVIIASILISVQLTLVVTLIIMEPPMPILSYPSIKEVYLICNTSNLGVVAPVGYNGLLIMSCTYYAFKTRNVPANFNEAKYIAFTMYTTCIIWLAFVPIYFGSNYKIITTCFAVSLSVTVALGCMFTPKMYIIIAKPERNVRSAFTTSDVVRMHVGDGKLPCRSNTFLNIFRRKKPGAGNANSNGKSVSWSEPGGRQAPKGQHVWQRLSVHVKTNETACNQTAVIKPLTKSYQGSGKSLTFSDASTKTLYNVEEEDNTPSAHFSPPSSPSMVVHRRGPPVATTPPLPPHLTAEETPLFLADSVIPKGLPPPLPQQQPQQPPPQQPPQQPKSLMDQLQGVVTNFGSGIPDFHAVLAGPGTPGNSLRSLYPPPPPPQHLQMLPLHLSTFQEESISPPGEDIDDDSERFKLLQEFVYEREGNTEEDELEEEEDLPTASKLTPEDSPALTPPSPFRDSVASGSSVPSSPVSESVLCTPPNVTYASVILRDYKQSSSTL

In turn, “9H-Thioxanthene-9-carboxylic acid (2-ethyl-2H-tetrazol-5-yl)-amide [Example 25]” had an EC50 on rat mGlu1a receptor of 1390 nM.

Compound `CCn1nnc(NC(=O)C2c3ccccc3COc3ccccc32)n1` (racemic) [Example 24, (RS)-6,11 -Dihydro-dibenzo[b,e]oxepine-11-carboxylic acid (2-ethyl-2H-tetrazol-5-yl)-amide] showed a melting point of 158 to 159 °C. Besides, the midpoint of the response on rat mGlu1a receptor, the EC50, lay at 470 nM.

Turning to `CCn1nnc(NC(=O)C2c3ccccc3Oc3cccc(OC)c32)n1` (racemic) [Example 26, (RS)-1-Methoxy-9H-xanthene-9-carboxylic acid (2-ethyl-2H-tetrazol-5-yl)-amide], the melting point is 259 to 260 °C (dec.).

For the compound `CCn1nnc(NC(=O)C2c3ccccc3Oc3ccc(OC)cc32)n1` (racemic) [Example 27, (RS)-2-Methoxy-9H-xanthene-9-carboxylic acid (2-ethyl-2H-tetrazol-5-yl)-amide], the melting point is 208 to 210 °C (dec.). At rat mGlu1a receptor, this compound came in with an EC50 of 190 nM.

As for `CCn1nnc(NC(=O)C2c3ccccc3Oc3c(OC)cccc32)n1` (racemic) [Example 28, (RS)-4-Methoxy-9H-xanthene-9-carboxylic acid (2-ethyl-2H-tetrazol-5-yl)-amide], the melting point was 239 to 240 °C (dec.).

With `Cn1nnc(NC(=O)C(c2ccccc2)c2ccccc2)n1` [Example 1, N-(2-Methyl-2H-tetrazol-5-yl)-2,2-diphenyl-acetamide], the melting point was 218 °C (dec.). This compound also came in with an EC50 on rat mGlu1a receptor of 220 nM.

Consider `Cn1nnc(NC(=O)C2c3ccccc3Oc3ccccc32)n1` [Example 2, 9-Xanthene-9-carboxylic acid (2-methyl-2H-tetrazol-5-yl)-amide], for which the melting point is 247 °C (dec.). The EC50 on rat mGlu1a receptor worked out at 180 nM.

The compound `CCn1nnc(NC(=O)C(c2ccccc2)c2ccccc2)n1` [Example 3, N-(2-Ethyl-2H-tetrazol-5-yl)-2,2-diphenyl-acetamide] came in with a melting point of 169 to 170 °C.

Take `CCn1nnc(NC(=O)C2c3ccccc3Oc3ccccc32)n1` [Example 4, 9H-Xanthene-9-carboxylic acid (2-ethyl-2H-tetrazol-5-yl)-amide]: the melting point was 228 °C (dec.).

With `O=C(Nc1nnn(CC2CC2)n1)C(c1ccccc1)c1ccccc1` [Example 5, N-(2-Cyclopropylmethyl-2H-tetrazol-5-yl)-2,2-diphenyl-acetamide], the melting point lay in the range of 147 to 148 °C.

`O=C(Nc1nnn(CC2CC2)n1)C1c2ccccc2Oc2ccccc21` [Example 6, 9H-Xanthene-9-carboxylic acid (2-cyclopropylmethyl-2H-tetrazol-5-yl)-amide] displayed a melting point of 222 to 224 °C.

Take `CC(C)n1nnc(NC(=O)C(c2ccccc2)c2ccccc2)n1` [Example 7, N-(2-Isopropyl-2H-tetrazol-5-yl)-2,2-diphenyl-acetamide]: the melting point is 175 to 177 °C. On rat mGlu1a receptor, this compound displayed an EC50 of 100 nM.

On to `CC(C)n1nnc(NC(=O)C2c3ccccc3Oc3ccccc32)n1` [Example 8, 9H-Xanthene-9-carboxylic acid (2-isopropyl-2H-tetrazol-5-yl)-amide], for which the midpoint of the response on rat mGlu1a receptor, the EC50, lay at 45 nM.

As for `O=C(Nc1nnn(CC(F)(F)F)n1)C(c1ccccc1)c1ccccc1` [Example 9, 2,2-Diphenyl-N-[2-(2,2,2-trifluoro-ethyl)-2H-tetrazol-5-yl]-acetamide], the melting point lay in the range of 146 to 148 °C. On rat mGlu1a receptor, the 50% effective concentration (EC50) was found to be 2000 nM.

`O=C(Nc1nnn(CC(F)(F)F)n1)C1c2ccccc2Oc2ccccc21` [Example 10, 9H-Xanthene-9-carboxylic acid [2-(2,2,2-trifluoro-ethyl)-2H-tetrazol-5-yl]-amide] came in with a melting point of 209 to 210 °C. Besides, the midpoint of the response at rat mGlu1a receptor, the EC50, lay at 170 nM.

With `CCCn1nnc(NC(=O)C(c2ccccc2)c2ccccc2)n1` [Example 11, 2,2-Diphenyl-N-(2-propyl-2H-tetrazol-5-yl)-acetamide], the melting point is 124 to 125 °C.

Take `CCCn1nnc(NC(=O)C2c3ccccc3Oc3ccccc32)n1` [Example 12, 9H-Xanthene-9-carboxylic acid (2-propyl-2H-tetrazol-5-yl)-amide]: the melting point fell in the range of 208 to 209 °C.

As for `COCn1nnc(NC(=O)C(c2ccccc2)c2ccccc2)n1` [Example 13, N-(2-Methoxymethyl-2H-tetrazol-5-yl)-2,2-diphenyl-acetamide], the melting point was 127 to 128 °C.

`COCn1nnc(NC(=O)C2c3ccccc3Oc3ccccc32)n1` [Example 14, 9H-Xanthene-9-carboxylic acid (2-methoxymethyl-2H-tetrazol-5-yl)-amide] had a melting point of 221 to 222 °C.

`CC(C)(C)n1nnc(NC(=O)C(c2ccccc2)c2ccccc2)n1` [Example 15, N-(2-tert-Butyl-2H-tetrazol-5-yl)-2,2-diphenyl-acetamide]: the melting point lay within 191 to 192 °C.

Compound `CC(C)(C)n1nnc(NC(=O)C2c3ccccc3Oc3ccccc32)n1` [Example 16, 9H-Xanthene-9-carboxylic acid (2-tert-butyl-2H-tetrazol-5-yl)-amide] showed a melting point of 230 to 231 °C.

Take `O=C(Nc1nnn(C(F)F)n1)C(c1ccccc1)c1ccccc1` [Example 17, N-(2-Difluoromethyl-2H-tetrazol-5-yl)-2,2-diphenyl-acetamide]: the melting point is 143 to 145 °C.

Turning to `O=C(Nc1nnn(C(F)F)n1)C1c2ccccc2Oc2ccccc21` [Example 18, 9H-Xanthene-9-carboxylic acid (2-difluoromethyl-2H-tetrazol-5-yl)-amide], the melting point fell in the range of 168 to 169 °C.

`N#CCn1nnc(NC(=O)C(c2ccccc2)c2ccccc2)n1` [Example 19, N-(2-Cyanomethyl-2H-tetrazol-5-yl)-2,2-diphenyl-acetamide] displayed a melting point of 173 to 174 °C.

For `N#CCn1nnc(NC(=O)C2c3ccccc3Oc3ccccc32)n1` [Example 20, 9H-Xanthene-9-carboxylic acid (2-cyanomethyl-2H-tetrazol-5-yl)-amide], the melting point fell in the range of 204 to 205 °C.

On to `COC(=O)Cn1nnc(NC(=O)C(c2ccccc2)c2ccccc2)n1` [Example 21, (5-Diphenylacetylamino-tetrazol-2-yl)-acetic acid methyl ester], for which the melting point is 168 to 169 °C.

In turn, `COC(=O)Cn1nnc(NC(=O)C2c3ccccc3Oc3ccccc32)n1` [Example 22, {5-[(9H-Xanthene-9-carbonyl)-amino]-tetrazol-2-yl}-acetic acid methyl ester] had a melting point of 243 to 244 °C.

Take `CCn1nnc(NC(=O)C2c3ccccc3Cc3ccccc32)n1` [Example 23, 9,10-Dihydro-anthracene-9-carboxylic acid (2-ethyl-2H-tetrazol-5-yl)-amide]: the melting point fell in the range of 206 to 207 °C.
